# Tested on: NCI60 cell lines
# Assay: NCI60 cell line panel
# Assay type: cell-based, human
# Protocol: The Developmental Therapeutics Program (DTP) of NCI has evaluated more than 100,000 pure compounds and more than 34,000 crude extracts against the panel of human tumor cell lines. The resultant data are analyzed using a program called COMPARE, that rank the entire database of tested compounds in the order of the similarity of the responses. […] Thus, the NCI60 databases is highly useful to the cancer research community. Further experiments were conducted that tested some of the active compounds in a panel of NCI60 cell line to relate our compounds with some known inhibitors to have an idea of possible mechanism of action.
# In order to understand the selectivity of these compounds in different cancer types, some of them were tested against a panel of 60 cell lines (Table XXXIX).
# [1] = Non-Small Cell Lung Cancer, A549/ATCC
# [2] = Non-Small Cell Lung Cancer, EKVX
# [3] = Non-Small Cell Lung Cancer, HOP-62
# [4] = Non-Small Cell Lung Cancer, HOP-92
# [5] = Non-Small Cell Lung Cancer, NCI-H23
# [6] = Non-Small Cell Lung Cancer, NCI-H226
# [7] = Non-Small Cell Lung Cancer, NCI-H322M
# [8] = Non-Small Cell Lung Cancer, NCI-H460
# [9] = Non-Small Cell Lung Cancer, NCI-H522
smiles,measurement,setting,value
"CCN(CC)CCCC(C)Nc1cnc(C(=O)Nc2cccc3ccc(OC)nc23)cn1 (stereo not shown) [J11, 5-((5-(diethylamino)pentan-2-yl)amino)-N-(2-methoxyquinolin-8-yl)pyrazine-2-carboxamide]",GIPRCNT: % Growth inhibition,"Breast Cancer, BT-549",83.22%
same,GIPRCNT: % Growth inhibition,"Breast Cancer, HS 578T",69.51%
same,GIPRCNT: % Growth inhibition,"Breast Cancer, MCF7",20.06%
same,GIPRCNT: % Growth inhibition,"Breast Cancer, MDA-MB-231/ATCC",71.85%
same,GIPRCNT: % Growth inhibition,"Breast Cancer, MDA-MB-468",79.15%
same,GIPRCNT: % Growth inhibition,"Breast Cancer, T-47D",83.88%
same,GIPRCNT: % Growth inhibition,"CNS Cancer, SF-268",63.03%
same,GIPRCNT: % Growth inhibition,"CNS Cancer, SF-295",100.8191%
same,GIPRCNT: % Growth inhibition,"CNS Cancer, SF-539",0.4567%
same,GIPRCNT: % Growth inhibition,"CNS Cancer, SNB-19",94.85%
same,GIPRCNT: % Growth inhibition,"CNS Cancer, SNB-75",75.89%
same,GIPRCNT: % Growth inhibition,"CNS Cancer, U251",56.1223%
same,GIPRCNT: % Growth inhibition,"Colon Cancer, COLO 205",71.37%
same,GIPRCNT: % Growth inhibition,"Colon Cancer, HCC-2998",90.92%
same,GIPRCNT: % Growth inhibition,"Colon Cancer, HCT-15",−25.625%
same,GIPRCNT: % Growth inhibition,"Colon Cancer, HCT-116",−36.0085%
same,GIPRCNT: % Growth inhibition,"Colon Cancer, HT29",−47.1759%
same,GIPRCNT: % Growth inhibition,"Colon Cancer, KM12",36.32%
same,GIPRCNT: % Growth inhibition,"Colon Cancer, SW-620",2.118%
same,GIPRCNT: % Growth inhibition,"Leukemia, CCRF-CEM",−7.649%
same,GIPRCNT: % Growth inhibition,"Leukemia, HL-60(TB)",72.3913%
same,GIPRCNT: % Growth inhibition,"Leukemia, K-562",−57.0747%
same,GIPRCNT: % Growth inhibition,"Leukemia, MOLT-4",53.43%
same,GIPRCNT: % Growth inhibition,"Leukemia, RPMI-8226",23.8%
same,GIPRCNT: % Growth inhibition,"Leukemia, SR",−5.71%
same,GIPRCNT: % Growth inhibition,"Melanoma, LOX IMVI",−89.8952%
same,GIPRCNT: % Growth inhibition,"Melanoma, M14",−75.6475%
same,GIPRCNT: % Growth inhibition,"Melanoma, MALME-3M",−69.7804%
same,GIPRCNT: % Growth inhibition,"Melanoma, MDA-MB-435",−58.2282%
same,GIPRCNT: % Growth inhibition,"Melanoma, SK-MEL-2",70.47%
same,GIPRCNT: % Growth inhibition,"Melanoma, SK-MEL-5",5.402%
same,GIPRCNT: % Growth inhibition,"Melanoma, UACC-62",−57.758%
same,GIPRCNT: % Growth inhibition,"Melanoma, UACC-257",−39.0086%
same,GIPRCNT: % Growth inhibition,[1],81.18%
same,GIPRCNT: % Growth inhibition,[2],104.0141%
same,GIPRCNT: % Growth inhibition,[3],94.18%
same,GIPRCNT: % Growth inhibition,[4],49.4978%
same,GIPRCNT: % Growth inhibition,[5],96.1%
same,GIPRCNT: % Growth inhibition,[6],61.44%
same,GIPRCNT: % Growth inhibition,[7],75.47%
same,GIPRCNT: % Growth inhibition,[8],1.048%
same,GIPRCNT: % Growth inhibition,[9],5.069%
same,GIPRCNT: % Growth inhibition,"Ovarian Cancer, IGROV1",78.33%
same,GIPRCNT: % Growth inhibition,"Ovarian Cancer, NCI/ADR-RES",76.12%
same,GIPRCNT: % Growth inhibition,"Ovarian Cancer, OVCAR-3",−30.7372%
same,GIPRCNT: % Growth inhibition,"Ovarian Cancer, OVCAR-4",98.13%
same,GIPRCNT: % Growth inhibition,"Ovarian Cancer, OVCAR-5",91.29%
same,GIPRCNT: % Growth inhibition,"Ovarian Cancer, OVCAR-8",68.24%
same,GIPRCNT: % Growth inhibition,"Ovarian Cancer, SK-OV-3",86.95%
same,GIPRCNT: % Growth inhibition,"Prostate Cancer, DU-145",78.79%
same,GIPRCNT: % Growth inhibition,"Prostate Cancer, PC-3",69.52%
same,GIPRCNT: % Growth inhibition,"Renal Cancer, 786-0",73.41%
same,GIPRCNT: % Growth inhibition,"Renal Cancer, A498",46.17%
same,GIPRCNT: % Growth inhibition,"Renal Cancer, ACHN",−86.4619%
same,GIPRCNT: % Growth inhibition,"Renal Cancer, CAKI-1",94.69%
same,GIPRCNT: % Growth inhibition,"Renal Cancer, RXF 393",45.96%
same,GIPRCNT: % Growth inhibition,"Renal Cancer, SN12C",78.47%
same,GIPRCNT: % Growth inhibition,"Renal Cancer, TK-10",90.98%
same,GIPRCNT: % Growth inhibition,"Renal Cancer, UO-31",69.07%
"CCN(CC)CCCC(C)Nc1cnc(C(=O)Nc2cc(F)cc3cccnc23)cn1 (stereo not shown) [J17, 5-((5-(diethylamino)pentan-2-yl)amino)-N-(6-fluoroquinolin-8-yl)pyrazine-2-carboxamide]",GIPRCNT: % Growth inhibition,"Breast Cancer, BT-549",77.38%
same,GIPRCNT: % Growth inhibition,"Breast Cancer, HS 578T",69.28%
same,GIPRCNT: % Growth inhibition,"Breast Cancer, MCF7",2.311%
same,GIPRCNT: % Growth inhibition,"Breast Cancer, MDA-MB-231/ATCC",59.42%
same,GIPRCNT: % Growth inhibition,"Breast Cancer, MDA-MB-468",6.238%
same,GIPRCNT: % Growth inhibition,"Breast Cancer, T-47D",14.34%
same,GIPRCNT: % Growth inhibition,"CNS Cancer, SF-268",51.93%
same,GIPRCNT: % Growth inhibition,"CNS Cancer, SF-295",71.23%
same,GIPRCNT: % Growth inhibition,"CNS Cancer, SF-539",83.12%
same,GIPRCNT: % Growth inhibition,"CNS Cancer, SNB-19",83.09%
same,GIPRCNT: % Growth inhibition,"CNS Cancer, SNB-75",65.6595%
same,GIPRCNT: % Growth inhibition,"CNS Cancer, U251",50.2764%
same,GIPRCNT: % Growth inhibition,"Colon Cancer, COLO 205",3.108%
same,GIPRCNT: % Growth inhibition,"Colon Cancer, HCC-2998",66.69%
same,GIPRCNT: % Growth inhibition,"Colon Cancer, HCT-15",24.5%
same,GIPRCNT: % Growth inhibition,"Colon Cancer, HCT-116",9.52%
same,GIPRCNT: % Growth inhibition,"Colon Cancer, HT29",11.8%
same,GIPRCNT: % Growth inhibition,"Colon Cancer, KM12",75.34%
same,GIPRCNT: % Growth inhibition,"Colon Cancer, SW-620",24.3%
same,GIPRCNT: % Growth inhibition,"Leukemia, CCRF-CEM",19.66%
same,GIPRCNT: % Growth inhibition,"Leukemia, HL-60(TB)",85.54%
same,GIPRCNT: % Growth inhibition,"Leukemia, K-562",3.946%
same,GIPRCNT: % Growth inhibition,"Leukemia, MOLT-4",21.9615%
same,GIPRCNT: % Growth inhibition,"Leukemia, RPMI-8226",75.09%
same,GIPRCNT: % Growth inhibition,"Leukemia, SR",2.839%
same,GIPRCNT: % Growth inhibition,"Melanoma, LOX IMVI",33.27%
same,GIPRCNT: % Growth inhibition,"Melanoma, M14",21.9%
same,GIPRCNT: % Growth inhibition,"Melanoma, MALME-3M",−8.343%
same,GIPRCNT: % Growth inhibition,"Melanoma, MDA-MB-435",25.54%
same,GIPRCNT: % Growth inhibition,"Melanoma, SK-MEL-2",96.72%
same,GIPRCNT: % Growth inhibition,"Melanoma, SK-MEL-5",69.98%
same,GIPRCNT: % Growth inhibition,"Melanoma, UACC-62",0.9972%
same,GIPRCNT: % Growth inhibition,"Melanoma, UACC-257",76.77%
same,GIPRCNT: % Growth inhibition,[1],58.01%
same,GIPRCNT: % Growth inhibition,[2],73.3%
same,GIPRCNT: % Growth inhibition,[3],64.08%
same,GIPRCNT: % Growth inhibition,[4],37.52%
same,GIPRCNT: % Growth inhibition,[5],81.37%
same,GIPRCNT: % Growth inhibition,[6],85.09%
same,GIPRCNT: % Growth inhibition,[7],63.8%
same,GIPRCNT: % Growth inhibition,[8],69.55%
same,GIPRCNT: % Growth inhibition,[9],52.69%
same,GIPRCNT: % Growth inhibition,"Ovarian Cancer, IGROV1",41.74%
same,GIPRCNT: % Growth inhibition,"Ovarian Cancer, NCI/ADR-RES",66.76%
same,GIPRCNT: % Growth inhibition,"Ovarian Cancer, OVCAR-3",5.413%
same,GIPRCNT: % Growth inhibition,"Ovarian Cancer, OVCAR-4",12.24%
same,GIPRCNT: % Growth inhibition,"Ovarian Cancer, OVCAR-5",77.12%
same,GIPRCNT: % Growth inhibition,"Ovarian Cancer, OVCAR-8",60.52%
same,GIPRCNT: % Growth inhibition,"Ovarian Cancer, SK-OV-3",98.32%
same,GIPRCNT: % Growth inhibition,"Prostate Cancer, DU-145",63.3%
same,GIPRCNT: % Growth inhibition,"Prostate Cancer, PC-3",60.96%
same,GIPRCNT: % Growth inhibition,"Renal Cancer, 786-0",68.3555%
same,GIPRCNT: % Growth inhibition,"Renal Cancer, A498",62.97%
same,GIPRCNT: % Growth inhibition,"Renal Cancer, ACHN",36.59%
same,GIPRCNT: % Growth inhibition,"Renal Cancer, CAKI-1",36.66%
same,GIPRCNT: % Growth inhibition,"Renal Cancer, RXF 393",33.77%
same,GIPRCNT: % Growth inhibition,"Renal Cancer, SN12C",54.47%
same,GIPRCNT: % Growth inhibition,"Renal Cancer, TK-10",63.68%
same,GIPRCNT: % Growth inhibition,"Renal Cancer, UO-31",29.1%

# — patent publication US20220081412A1, “QUINOLINYL-PYRAZINE-CARBOXAMIDE COMPOUNDS AND USES THEREOF” (The Regents of the University of Michigan, priority 2018, published 2022)
